{"source": "the supplement of paper PMC10307832", "test_in_all_cases": "relative viability (nuclei count vs DMSO), 5 days (fraction); higher = more cells survive", "key": {"NCI-H2087": {"test_system": "NCI-H2087", "procedure,_shortened": "(§1)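 Relative viability divides the nuclei count in treated wells by that in vehicle wells. Lung cancer cell lines were seeded in 1536-well plates, dosed by pin tool the next day, and fixed and stained after 5 days in one step with final 0.05% Triton X-100, 1% formaldehyde and 1 ug/ml Hoechst. Dosing was a single drug or a fixed anchor-drug dose plus five library-drug doses (not always all listed) in √10 steps, and values are medians of duplicate plates imaged at 4×.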"}, "PC-3 [JPC-3]": {"test_system": "PC-3 [JPC-3]", "procedure,_shortened": "as §1"}, "H3255": {"test_system": "H3255", "procedure,_shortened": "as §1"}, "NCI-H650": {"test_system": "NCI-H650", "procedure,_shortened": "as §1"}, "NCI-H647": {"test_system": "NCI-H647", "procedure,_shortened": "as §1"}, "NCI-H1666": {"test_system": "NCI-H1666", "procedure,_shortened": "as §1"}, "NCI-H2085": {"test_system": "NCI-H2085", "procedure,_shortened": "as §1"}, "COR-L 105": {"test_system": "COR-L 105", "procedure,_shortened": "as §1"}, "LOU-NH91": {"test_system": "LOU-NH91", "procedure,_shortened": "as §1"}, "LCLC-97TM1": {"test_system": "LCLC-97TM1", "procedure,_shortened": "as §1"}, "LU99A": {"test_system": "LU99A", "procedure,_shortened": "as §1"}, "SW 1573": {"test_system": "SW 1573", "procedure,_shortened": "as §1"}, "201T": {"test_system": "201T", "procedure,_shortened": "as §1"}, "EPLC-272H": {"test_system": "EPLC-272H", "procedure,_shortened": "as §1"}, "EKVX": {"test_system": "EKVX", "procedure,_shortened": "as §1"}, "BEN": {"test_system": "BEN", "procedure,_shortened": "as §1"}, "HCC-827": {"test_system": "HCC-827", "procedure,_shortened": "as §1"}, "NCI-H1437": {"test_system": "NCI-H1437", "procedure,_shortened": "as §1"}, "HCC-44": {"test_system": "HCC-44", "procedure,_shortened": "as §1"}, "NCI-H1975": {"test_system": "NCI-H1975", "procedure,_shortened": "as §1"}}}
{"molecule": "O=c1cc(-c2cccc3c2Sc2ccccc2S3)oc(N2CCOCC2)c1", "note": "+ CC(C)C[C@H](NC(=O)[C@H](Cc1ccccc1)NC(=O)c1cnccn1)B(O)O [Bortezomib] (partner 0.002 µM)", "values": [{"measurement": "relative viability", "setting": "NCI-H2087; first compound 0.08 µM", "value": 1.06}, {"measurement": "relative viability", "setting": "NCI-H2087; first compound 0.253 µM", "value": 1.02}, {"measurement": "relative viability", "setting": "NCI-H2087; first compound 0.8 µM", "value": 1.1}, {"measurement": "relative viability", "setting": "NCI-H2087; first compound 2.53 µM", "value": 0.792}, {"measurement": "relative viability", "setting": "NCI-H2087; first compound 8 µM", "value": 0.888}, {"measurement": "relative viability", "setting": "PC-3 [JPC-3]; first compound 0.08 µM", "value": 0.875}, {"measurement": "relative viability", "setting": "PC-3 [JPC-3]; first compound 0.253 µM", "value": 0.801}, {"measurement": "relative viability", "setting": "PC-3 [JPC-3]; first compound 0.8 µM", "value": 0.886}, {"measurement": "relative viability", "setting": "PC-3 [JPC-3]; first compound 2.53 µM", "value": 0.818}, {"measurement": "relative viability", "setting": "PC-3 [JPC-3]; first compound 8 µM", "value": 1.12}, {"measurement": "relative viability", "setting": "H3255; first compound 0.08 µM", "value": 0.837}, {"measurement": "relative viability", "setting": "H3255; first compound 0.253 µM", "value": 0.835}, {"measurement": "relative viability", "setting": "H3255; first compound 0.8 µM", "value": 0.837}, {"measurement": "relative viability", "setting": "H3255; first compound 2.53 µM", "value": 0.646}, {"measurement": "relative viability", "setting": "H3255; first compound 8 µM", "value": 1.07}, {"measurement": "relative viability", "setting": "NCI-H650; first compound 0.08 µM", "value": 0.701}, {"measurement": "relative viability", "setting": "NCI-H650; first compound 0.253 µM", "value": 0.74}, {"measurement": "relative viability", "setting": "NCI-H650; first compound 0.8 µM", "value": 0.869}, {"measurement": "relative viability", "setting": "NCI-H650; first compound 2.53 µM", "value": 0.599}, {"measurement": "relative viability", "setting": "NCI-H650; first compound 8 µM", "value": 0.803}, {"measurement": "relative viability", "setting": "NCI-H647; first compound 0.08 µM", "value": 0.978}, {"measurement": "relative viability", "setting": "NCI-H647; first compound 0.253 µM", "value": 1.3}, {"measurement": "relative viability", "setting": "NCI-H647; first compound 0.8 µM", "value": 1.04}, {"measurement": "relative viability", "setting": "NCI-H647; first compound 2.53 µM", "value": 0.85}, {"measurement": "relative viability", "setting": "NCI-H647; first compound 8 µM", "value": 1.57}, {"measurement": "relative viability", "setting": "NCI-H1666; first compound 0.08 µM", "value": 0.666}, {"measurement": "relative viability", "setting": "NCI-H1666; first compound 0.253 µM", "value": 0.887}, {"measurement": "relative viability", "setting": "NCI-H1666; first compound 0.8 µM", "value": 0.559}, {"measurement": "relative viability", "setting": "NCI-H1666; first compound 2.53 µM", "value": 0.793}, {"measurement": "relative viability", "setting": "NCI-H1666; first compound 8 µM", "value": 0.759}, {"measurement": "relative viability", "setting": "NCI-H2085; first compound 0.08 µM", "value": 1.01}, {"measurement": "relative viability", "setting": "NCI-H2085; first compound 0.253 µM", "value": 1.11}, {"measurement": "relative viability", "setting": "NCI-H2085; first compound 0.8 µM", "value": 1.14}, {"measurement": "relative viability", "setting": "NCI-H2085; first compound 2.53 µM", "value": 0.94}, {"measurement": "relative viability", "setting": "NCI-H2085; first compound 8 µM", "value": 1.09}, {"measurement": "relative viability", "setting": "COR-L 105; first compound 0.08 µM", "value": 0.669}, {"measurement": "relative viability", "setting": "COR-L 105; first compound 0.253 µM", "value": 0.715}, {"measurement": "relative viability", "setting": "COR-L 105; first compound 0.8 µM", "value": 0.741}, {"measurement": "relative viability", "setting": "COR-L 105; first compound 2.53 µM", "value": 0.795}, {"measurement": "relative viability", "setting": "COR-L 105; first compound 8 µM", "value": 0.733}, {"measurement": "relative viability", "setting": "LOU-NH91; first compound 0.08 µM", "value": 0.481}, {"measurement": "relative viability", "setting": "LOU-NH91; first compound 0.253 µM", "value": 0.514}, {"measurement": "relative viability", "setting": "LOU-NH91; first compound 0.8 µM", "value": 0.546}, {"measurement": "relative viability", "setting": "LOU-NH91; first compound 2.53 µM", "value": 0.489}, {"measurement": "relative viability", "setting": "LOU-NH91; first compound 8 µM", "value": 0.502}, {"measurement": "relative viability", "setting": "LCLC-97TM1; first compound 0.08 µM", "value": 0.732}, {"measurement": "relative viability", "setting": "LCLC-97TM1; first compound 0.253 µM", "value": 0.387}, {"measurement": "relative viability", "setting": "LCLC-97TM1; first compound 0.8 µM", "value": 0.528}, {"measurement": "relative viability", "setting": "LCLC-97TM1; first compound 2.53 µM", "value": 0.344}, {"measurement": "relative viability", "setting": "LCLC-97TM1; first compound 8 µM", "value": 1.16}, {"measurement": "relative viability", "setting": "LU99A; first compound 0.08 µM", "value": 1.18}, {"measurement": "relative viability", "setting": "LU99A; first compound 0.253 µM", "value": 1.07}, {"measurement": "relative viability", "setting": "LU99A; first compound 0.8 µM", "value": 1.5}, {"measurement": "relative viability", "setting": "LU99A; first compound 2.53 µM", "value": 1.03}, {"measurement": "relative viability", "setting": "LU99A; first compound 8 µM", "value": 1.3}, {"measurement": "relative viability", "setting": "SW 1573; first compound 0.08 µM", "value": 0.976}, {"measurement": "relative viability", "setting": "SW 1573; first compound 0.253 µM", "value": 1.13}, {"measurement": "relative viability", "setting": "SW 1573; first compound 0.8 µM", "value": 1.09}, {"measurement": "relative viability", "setting": "SW 1573; first compound 2.53 µM", "value": 1.05}, {"measurement": "relative viability", "setting": "SW 1573; first compound 8 µM", "value": 1.09}, {"measurement": "relative viability", "setting": "201T; first compound 0.08 µM", "value": 1.07}, {"measurement": "relative viability", "setting": "201T; first compound 0.253 µM", "value": 1.15}, {"measurement": "relative viability", "setting": "201T; first compound 0.8 µM", "value": 1.15}, {"measurement": "relative viability", "setting": "201T; first compound 2.53 µM", "value": 1.02}, {"measurement": "relative viability", "setting": "201T; first compound 8 µM", "value": 1.08}, {"measurement": "relative viability", "setting": "EPLC-272H; first compound 0.08 µM", "value": 0.806}, {"measurement": "relative viability", "setting": "EPLC-272H; first compound 0.253 µM", "value": 1.09}, {"measurement": "relative viability", "setting": "EPLC-272H; first compound 0.8 µM", "value": 1.02}, {"measurement": "relative viability", "setting": "EPLC-272H; first compound 2.53 µM", "value": 0.721}, {"measurement": "relative viability", "setting": "EPLC-272H; first compound 8 µM", "value": 0.802}, {"measurement": "relative viability", "setting": "EKVX; first compound 0.08 µM", "value": 0.977}, {"measurement": "relative viability", "setting": "EKVX; first compound 0.253 µM", "value": 1.11}, {"measurement": "relative viability", "setting": "EKVX; first compound 0.8 µM", "value": 1.1}, {"measurement": "relative viability", "setting": "EKVX; first compound 2.53 µM", "value": 1.06}, {"measurement": "relative viability", "setting": "EKVX; first compound 8 µM", "value": 1.1}, {"measurement": "relative viability", "setting": "BEN; first compound 0.08 µM", "value": 0.802}, {"measurement": "relative viability", "setting": "BEN; first compound 0.253 µM", "value": 0.858}, {"measurement": "relative viability", "setting": "BEN; first compound 0.8 µM", "value": 0.991}, {"measurement": "relative viability", "setting": "BEN; first compound 2.53 µM", "value": 0.889}, {"measurement": "relative viability", "setting": "BEN; first compound 8 µM", "value": 1.23}, {"measurement": "relative viability", "setting": "HCC-827; first compound 0.08 µM", "value": 0.962}, {"measurement": "relative viability", "setting": "HCC-827; first compound 0.253 µM", "value": 0.96}, {"measurement": "relative viability", "setting": "HCC-827; first compound 0.8 µM", "value": 0.974}, {"measurement": "relative viability", "setting": "HCC-827; first compound 2.53 µM", "value": 0.873}, {"measurement": "relative viability", "setting": "HCC-827; first compound 8 µM", "value": 1.11}, {"measurement": "relative viability", "setting": "NCI-H1437; first compound 0.08 µM", "value": 0.51}, {"measurement": "relative viability", "setting": "NCI-H1437; first compound 0.253 µM", "value": 0.626}, {"measurement": "relative viability", "setting": "NCI-H1437; first compound 0.8 µM", "value": 0.473}, {"measurement": "relative viability", "setting": "NCI-H1437; first compound 2.53 µM", "value": 0.555}, {"measurement": "relative viability", "setting": "NCI-H1437; first compound 8 µM", "value": 0.543}, {"measurement": "relative viability", "setting": "HCC-44; first compound 0.08 µM", "value": 0.907}, {"measurement": "relative viability", "setting": "HCC-44; first compound 0.253 µM", "value": 1.07}, {"measurement": "relative viability", "setting": "HCC-44; first compound 0.8 µM", "value": 0.837}, {"measurement": "relative viability", "setting": "HCC-44; first compound 2.53 µM", "value": 0.816}, {"measurement": "relative viability", "setting": "HCC-44; first compound 8 µM", "value": 1.03}, {"measurement": "relative viability", "setting": "NCI-H1975; first compound 0.08 µM", "value": 0.425}, {"measurement": "relative viability", "setting": "NCI-H1975; first compound 0.253 µM", "value": 0.419}, {"measurement": "relative viability", "setting": "NCI-H1975; first compound 0.8 µM", "value": 0.319}, {"measurement": "relative viability", "setting": "NCI-H1975; first compound 2.53 µM", "value": 0.367}, {"measurement": "relative viability", "setting": "NCI-H1975; first compound 8 µM", "value": 0.384}]}
